The record followed here is US8846669B2, “Oxazolidinone derivative and medical composition containing same” (Legochem Biosciences, Inc., priority 2011, dated 2014).

Converted amounts (≈) assume the structure as drawn. Where two headings read alike, the source gives them in different places.

Common to all, as to test: In vitro antibacterial activity, broth microdilution MIC90
Common to all, as to assay type: cell-based

The subject of one assay is Enterococcus faecalis. In outline:
(§1)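 Compounds were serially diluted to final concentrations of 0.063–128 μg/mL in 2.5% (V/V) DMSO, then tested by CLSI-based broth microdilution against 12 Gram-positive and Moraxella strains. MIC90 values were recorded alongside a linezolid control.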

Assay [1] has as its system Vancomycin Resistant Enterococcus faecalis. The method, boiled down: as §1
For the next assay, the system named is Moraxella catarrhalis. In outline:
as §1

Assay [2] has as its system Linezolid and Vancomycin Resistant Enterococcus faecium (strain 11). The method, boiled down: as §1
The subject of assay [3] is Linezolid and Vancomycin Resistant Enterococcus faecalis. The method, boiled down:
as §1

Assay [4] relates to Linezolid and Vancomycin Resistant Enterococcus faecium (strain 10). The method, boiled down: as §1
Assay [5] concerns Methicillin Resistant Staphylococcus aureus. The method, boiled down: as §1
Assay [6] concerns Methicillin Resistant Staphylococcus epidermidis. In outline: as §1
The subject of assay [7] is Vancomycin Resistant Enterococcus faecium. In outline: as §1
Assay [8] relates to Staphylococcus epidermidis. The method, boiled down:
as §1

The next assay concerns Enterococcus faecium. In outline:
as §1

For a further assay, the system named is Staphylococcus aureus. The method, boiled down:
as §1

The mark [9] stands for this setting: Enterococcus faecalis, strain 5, E. faecalis, read-out: MIC90.
[10] abbreviates: Enterococcus faecalis, strain 6, E. faecalis VanA, read-out: MIC90.
[11] abbreviates: Moraxella catarrhalis, strain 12, M. catarrhalis, read-out: MIC90.
Setting [12] is: Enterococcus faecium, strain 11, E. faecium VanA LR, read-out: MIC90.
The mark [13] stands for this setting: Enterococcus faecalis, strain 7, E. faecalis VanA LR, read-out: MIC90.
The mark [14] stands for this setting: Enterococcus faecium, strain 10, E. faecium VanA LR, read-out: MIC90.
Setting [15] is: Staphylococcus aureus, strain 2, S. aureus MR, read-out: MIC90.
Where [16] appears, read: Staphylococcus epidermidis, strain 4, S. epidermidis MR, read-out: MIC90.
[17] abbreviates: Enterococcus faecium, strain 9, E. faecium VanA, read-out: MIC90.
Setting [18] is: Staphylococcus epidermidis, strain 3, S. epidermidis, read-out: MIC90.
The mark [19] stands for this setting: Enterococcus faecium, strain 8, E. faecium, read-out: MIC90.
Where [20] appears, read: Staphylococcus aureus, strain 1, S. aureus, read-out: MIC90.

On to `O=C(O)CN1CCN(c2ccc(-c3ccc(N4C[C@H](COc5ccon5)OC4=O)cc3F)cn2)C=N1` [Compound 51], for which the MIC90 is 4 mg/L (≈ 8.06 µM) with Enterococcus faecalis (strain 5, E. faecalis); 4 mg/L (≈ 8.06 µM) in assay [1] (strain 6, E. faecalis VanA); more than 128 mg/L against Moraxella catarrhalis (strain 12, M. catarrhalis); 32 mg/L (≈ 64.5 µM) in assay [2] (strain 11, E. faecium VanA LR); 16 mg/L (≈ 32.2 µM) in assay [3] (strain 7, E. faecalis VanA LR); 32 mg/L (≈ 64.5 µM) in assay [4] (strain 10, E. faecium VanA LR). The MIC90 in [5] (strain 2, S. aureus MR) was 1 mg/L (≈ 2.01 µM); in assay [6] (strain 4, S. epidermidis MR), 4 mg/L (≈ 8.06 µM); in [7] (strain 9, E. faecium VanA), 4 mg/L (≈ 8.06 µM); in assay [8] (strain 3, S. epidermidis), 1 mg/L (≈ 2.01 µM); in the assay on Enterococcus faecium (strain 8, E. faecium) it was 1 mg/L (≈ 2.01 µM); against Staphylococcus aureus (strain 1, S. aureus) it was 0.5 mg/L (≈ 1.01 µM).
In the case of `CC(=O)NC[C@H]1CN(c2ccc(-c3ccc(N4C=NN(C(=O)COC(=O)CCC(=O)O)CC4)nc3)c(F)c2)C(=O)O1` [Compound 13], the MIC90 in the assay on Enterococcus faecalis (setting [9]) amounted to 1 mg/L (≈ 1.75 µM); in assay [1] (setting [10]) it was 1 mg/L (≈ 1.75 µM); in the assay with Moraxella catarrhalis (setting [11]), 2 mg/L (≈ 3.51 µM); in assay [2] (setting [12]), 2 mg/L (≈ 3.51 µM); in assay [3] (setting [13]), 2 mg/L (≈ 3.51 µM); in assay [4] (setting [14]), 2 mg/L (≈ 3.51 µM). The MIC90 in [5] (setting [15]) came to 2 mg/L (≈ 3.51 µM); in [6] (setting [16]), 2 mg/L (≈ 3.51 µM); in assay [7] (setting [17]) it was 1 mg/L (≈ 1.75 µM); in assay [8] (setting [18]) it was 1 mg/L (≈ 1.75 µM); in the assay on Enterococcus faecium (setting [19]), 2 mg/L (≈ 3.51 µM); with Staphylococcus aureus (setting [20]), 1 mg/L (≈ 1.75 µM).
`CC(=O)NC[C@H]1CN(c2ccc(-c3ccc(C4=NOCCN4C)nc3)c(F)c2)C(=O)O1` [Compound 69]: the MIC90 in the assay with Enterococcus faecalis (setting [9]) worked out at 1 mg/L (≈ 2.34 µM); in assay [1] (setting [10]), 1 mg/L (≈ 2.34 µM); with Moraxella catarrhalis (setting [11]), 8 mg/L (≈ 18.7 µM); in [2] (setting [12]) it was 4 mg/L (≈ 9.36 µM); in [3] (setting [13]), 2 mg/L (≈ 4.68 µM); in assay [4] (setting [14]), 4 mg/L (≈ 9.36 µM). For the same compound, the MIC90 came out at 2 mg/L (≈ 4.68 µM) in assay [5] (setting [15]); 2 mg/L (≈ 4.68 µM) in [6] (setting [16]); 1 mg/L (≈ 2.34 µM) in assay [7] (setting [17]); 0.5 mg/L (≈ 1.17 µM) in [8] (setting [18]); 1 mg/L (≈ 2.34 µM) with Enterococcus faecium (setting [19]); 0.5 mg/L (≈ 1.17 µM) in the assay with Staphylococcus aureus (setting [20]).
Take `CC(=O)NC[C@H]1CN(c2ccc(-c3ccc(N4C=NN(C(=O)COC(C)=O)CC4)nc3)c(F)c2)C(=O)O1` [Compound 12]: the MIC90 was found to be 0.125 mg/L (≈ 0.244 µM) in the assay with Enterococcus faecalis (Enterococcus faecalis); 0.25 mg/L (≈ 0.488 µM) in assay [1] (Enterococcus faecalis); 0.5 mg/L (≈ 0.976 µM) in the assay on Moraxella catarrhalis (Moraxella catarrhalis); 1 mg/L (≈ 1.95 µM) in [2] (Enterococcus faecium); 1 mg/L (≈ 1.95 µM) in assay [3] (Enterococcus faecalis); 1 mg/L (≈ 1.95 µM) in assay [4] (Enterococcus faecium). Also, the MIC90 came out at 0.25 mg/L (≈ 0.488 µM) in [5] (Staphylococcus aureus); 0.25 mg/L (≈ 0.488 µM) in assay [6] (Staphylococcus epidermidis); 0.25 mg/L (≈ 0.488 µM) in assay [7] (Enterococcus faecium); 0.125 mg/L (≈ 0.244 µM) in assay [8] (Staphylococcus epidermidis); 0.063 mg/L (≈ 0.123 µM) against Enterococcus faecium (Enterococcus faecium); 0.125 mg/L (≈ 0.244 µM) against Staphylococcus aureus (Staphylococcus aureus).
With `CC(=O)NC[C@H]1CN(c2ccc(-c3ccc(N4C=NN(C(=O)CN)CC4)nc3)c(F)c2)C(=O)O1` [Compound 19], the MIC90 against Enterococcus faecalis (Enterococcus faecalis) stood at 0.5 mg/L (≈ 1.07 µM); in assay [1] (Enterococcus faecalis), 0.5 mg/L (≈ 1.07 µM); against Moraxella catarrhalis (Moraxella catarrhalis) it was 1 mg/L (≈ 2.13 µM); in [2] (Enterococcus faecium) it was 2 mg/L (≈ 4.26 µM); in assay [3] (Enterococcus faecalis), 2 mg/L (≈ 4.26 µM); in assay [4] (Enterococcus faecium) it was 2 mg/L (≈ 4.26 µM). In addition, the MIC90 in assay [5] (Staphylococcus aureus) was found to be 0.5 mg/L (≈ 1.07 µM); in [6] (Staphylococcus epidermidis), 0.5 mg/L (≈ 1.07 µM); in [7] (Enterococcus faecium), 0.5 mg/L (≈ 1.07 µM); in assay [8] (Staphylococcus epidermidis) it was 0.25 mg/L (≈ 0.533 µM); in the assay on Enterococcus faecium (Enterococcus faecium), 0.25 mg/L (≈ 0.533 µM); with Staphylococcus aureus (Staphylococcus aureus), 0.25 mg/L (≈ 0.533 µM).
For the compound `COC(=O)NC[C@H]1CN(c2ccc(-c3ccc(N4C=NOCC4)nc3)c(F)c2)C(=O)O1` [Compound 59], the MIC90 with Enterococcus faecalis (setting [9]) was found to be 0.5 mg/L (≈ 1.16 µM); in [1] (setting [10]), 0.5 mg/L (≈ 1.16 µM); in the assay on Moraxella catarrhalis (setting [11]), 2 mg/L (≈ 4.66 µM); in [2] (setting [12]), 4 mg/L (≈ 9.32 µM); in [3] (setting [13]) it was 4 mg/L (≈ 9.32 µM); in assay [4] (setting [14]) it was 4 mg/L (≈ 9.32 µM). The MIC90 in assay [5] (setting [15]) was found to be 0.5 mg/L (≈ 1.16 µM); in assay [6] (setting [16]), 1 mg/L (≈ 2.33 µM); in assay [7] (setting [17]), 0.25 mg/L (≈ 0.582 µM); in assay [8] (setting [18]), 0.25 mg/L (≈ 0.582 µM); in the assay with Enterococcus faecium (setting [19]) it was 0.25 mg/L (≈ 0.582 µM); in the assay on Staphylococcus aureus (setting [20]) it was 0.25 mg/L (≈ 0.582 µM).
Take `O=C1O[C@@H](CNc2ccon2)CN1c1ccc(-c2ccc(C3=NOCCN3)nc2)c(F)c1` [Compound 67]: the MIC90 against Enterococcus faecalis (strain 5, E. faecalis) was determined as 0.5 mg/L (≈ 1.14 µM); in [1] (strain 6, E. faecalis VanA) it was 0.5 mg/L (≈ 1.14 µM); against Moraxella catarrhalis (strain 12, M. catarrhalis), 1 mg/L (≈ 2.28 µM); in assay [2] (strain 11, E. faecium VanA LR), 2 mg/L (≈ 4.56 µM); in [3] (strain 7, E. faecalis VanA LR), 2 mg/L (≈ 4.56 µM); in assay [4] (strain 10, E. faecium VanA LR), 2 mg/L (≈ 4.56 µM). Besides, the MIC90 was determined as 0.5 mg/L (≈ 1.14 µM) in assay [5] (strain 2, S. aureus MR); 0.5 mg/L (≈ 1.14 µM) in assay [6] (strain 4, S. epidermidis MR); 0.5 mg/L (≈ 1.14 µM) in assay [7] (strain 9, E. faecium VanA); 0.25 mg/L (≈ 0.57 µM) in [8] (strain 3, S. epidermidis); 0.25 mg/L (≈ 0.57 µM) against Enterococcus faecium (strain 8, E. faecium); 0.25 mg/L (≈ 0.57 µM) in the assay on Staphylococcus aureus (strain 1, S. aureus).

Usually MIC90 stands for an inhibitory concentration at the 90% level, which refers to growth in some studies and to a panel of isolates in others.
